Earlier results as cited in article PMC2821159 (Bioorganic & medicinal chemistry, 2009).

System: protein kinases

## CNc1ncnc2c1c(-c1cccc(O)c1)cn2C(C)C [Compound 4, 3-(7-isopropyl-4-(methylamino)-7H-pyrrolo[2,3-d]pyrimidin-5yl)phenol]
  inhibition against protein kinases: poor inhibition
